Assay results taken from PubChem BioAssay AID464 (The Scripps Research Institute Molecular Screening Center, 2006).
The source made the active and inactive calls.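 How the source made its calls: active means Compounds that kill half the cells at a concentration of 5 micromolar or below, from the fitted or estimated CC50; inactive means CC50 above 5 micromolar.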

Tested on: Jurkat E6.1 viability, ATP luminescence, 48 h
Assay: viability loss in Jurkat T cells – cell-based, ATP luminescence, 48 h, 60K MLSMR, cytotoxicity control, dose response (AID 464)

Row | Compound | CC50
1 | Cc1c(C(=O)OCc2ccccc2)[nH]c2c1C(=O)CC(c1ccco1)C2 (stereo not given) | 0.499 µM
2 | CCOc1ccccc1C1CC(=O)Nc2cc3c(cc21)OCCO3 (stereo not given) | 0.625 µM
3 | CCOc1ccc2ccccc2c1C(=O)N1CCN(c2ccccc2)CC1 | 3.75 µM
4 | CS(=O)(=O)N1CCc2cc(-c3csc(NC(=O)Cc4cccs4)n3)ccc21 | 19.1 µM (inactive)
5 | O=C(N1CCN(c2ccccn2)CC1)N1c2ccccc2Sc2ccccc21 | 0.669 µM
6 | COc1ccc(Cn2c(=O)oc3ccc(C)cc32)cc1OC | 13.1 µM (inactive)
7 | Cc1cc(C)nc(SCC(=O)Nc2ccc(N3CCOCC3)c(Cl)c2)n1 | 5.6 µM (inactive)
8 | N#Cc1c(NCc2ccccc2)ccnc1NCc1cccnc1 | 4.17 µM
9 | CCOC(=O)C(C(C)=O)c1c(Br)c(O)c(O)c2c(C(=O)c3ccc(C)cc3)coc12 (stereo not given) | 6.14 µM (inactive)
10 | CCOc1cc(C#N)c(NC(=O)c2cccnc2)cc1OCC | 1.51 µM
11 | Cc1ccc(-c2csc3ncnc(Sc4nnc(CN5CCCCCC5=O)o4)c23)cc1 | 5.28 µM (inactive)
12 | Clc1ccc(CCNc2ncnc3nc[nH]c23)cc1 | 19.6 µM (inactive)
13 | O=C(c1ccncc1)N(Cc1cc2ccccc2[nH]c1=O)C1CCCCC1 | 5.31 µM (inactive)
14 | CCOC(=O)N1CCN(C(=O)C2CCCN(Cc3nc(-c4ccc(Cl)cc4)oc3C)C2)CC1 (stereo not given) | 4.64 µM
15 | Cc1cc(=O)oc2cc(OCC(=O)N3c4ccccc4CC3C)ccc12 (stereo not given) | 0.756 µM
16 | CN1Cc2cc(C(=O)c3cc(Cl)cc(CSc4ncccn4)c3O)cnc2NC1=O | 0.212 µM
17 | O=C(Nc1ccc(N2CCOCC2)cc1)Nc1ccc2nc(-c3ccco3)c(-c3ccco3)nc2c1 | 10.4 µM (inactive)
18 | CCOC(=O)NC1(Nc2ccc(Cl)cn2)Oc2ccccc2O1 | 12.5 µM (inactive)
19 | CC(C)OCCCNc1ncnc2c1[nH]c1ccccc12 | 4.91 µM
20 | Oc1ccccc1-c1nnc(SCCN2CCOCC2)n1Cc1ccccc1 | 1.7 µM
21 | COc1ccccc1N=c1oc2cc(O)ccc2cc1C(N)=O | > 13 µM (inactive)
22 | N#CCCn1cc(/C=N/O)c(-c2ccc(-c3ccccc3)cc2)n1 | 11.6 µM (inactive)
23 | CCOc1ccc(S(=O)(=O)n2cnc3cc(C)c(C)cc32)cc1 | 4.83 µM
24 | O=C(Nc1nc(-c2ccccn2)cs1)c1ccc(Cl)s1 | 2.12 µM
25 | COc1ccc(CNc2cc(C)nc3ncnn23)c(OC)c1 | 3.25 µM
26 | CCn1c(-c2ccc(N(C)C)cc2)nc2ccccc21 | 5.93 µM (inactive)
27 | CCOC(=O)C1(Nc2nccs2)Sc2ccccc2NC1=O (stereo not given) | 3.66 µM
28 | COc1cc(-c2nnc3n2N=C(c2ccccc2)CS3)cc(OC)c1OC | 0.392 µM

Row | Compound | CC50
29 | CCOC(=O)N1CCN(C(=O)c2ccccc2-c2ccccc2)CC1 | 1.91 µM
30 | COc1ccccc1-c1cc(C(=O)Nc2cccnc2)no1 | 0.146 µM
31 | O=C(NCc1cccs1)c1nc2c(nnn2Cc2ccccc2Cl)c(=O)[nH]1 | 14.8 µM (inactive)
32 | Cn1cc(/C(Cc2ccccc2)=N\O)c2ccccc21 | 12.9 µM (inactive)
33 | Cc1ccc(-c2nc(-c3ccccn3)no2)cc1 | 10.3 µM (inactive)
34 | O=C(NCCN1CCOCC1)NC1(C(F)(F)F)Oc2ccc(Cl)cc2O1 (stereo not given) | 8.23 µM (inactive)
35 | Cc1noc(C)c1CSc1nc2ccccc2c(=O)n1-c1ccccc1 | 2.28 µM
36 | COc1ccc(S(=O)(=O)Nc2cc(Cl)ccc2OC)cc1 | 1.01 µM
37 | CCOC(=O)C1CCN(C(c2cccnc2)c2c(NC(=O)c3ccco3)sc(C)c2C)CC1 (stereo not given) | > 40 µM (inactive)
38 | c1ccc(C(Cc2nc(-c3ccncc3)no2)c2ccccc2)cc1 | 8.52 µM (inactive)
39 | COc1ccc(CC(=O)Nc2cccc(-c3nnc(-c4ccccc4)o3)c2)cc1OC | 15.8 µM (inactive)
40 | CCOC(=O)CSC1=C(C#N)C(c2ccc(C)s2)CC(=O)N1 (stereo not given) | 1.56 µM
41 | CCCCN(CC)S(=O)(=O)c1ccc(C(=O)Nc2nnc(CSC)o2)cc1 | 37.6 µM (inactive)
42 | Oc1c(CN2CCCCC2)cc(Br)c2cccnc12 | 3.79 µM
43 | CCOC(=O)c1[nH]c(C)c(C(=O)Nc2ccccc2F)c1C | 1.42 µM
44 | CCCCCCn1c(NCC)nc2c1c(=O)n(C)c(=O)n2C | 2.83 µM
45 | COc1cc(NS(=O)(=O)c2ccc3c(c2)oc(=O)n3C)cc(OC)c1OC | 5.88 µM (inactive)
46 | COC(=O)c1ccc(Cl)c(NS(=O)(=O)c2ccc3c(c2)OCCO3)c1 | 4.81 µM
47 | Cc1ccc2c(c1)[nH]c1c(N3CCN(Cc4ccccc4)CC3)ncnc12 | > 40 µM (inactive)
48 | Cc1ccc(C2NC(=O)c3ccccc3N2)s1 (stereo not given) | 4.16 µM
49 | COc1cc(C2Nc3ccc4ncccc4c3C3=C2C(=O)CCC3)cc(OC)c1O (stereo not given) | 6.15 µM (inactive)
50 | Cc1c(C(=O)OCC2CCCO2)[nH]c2c1C(=O)CC(c1ccco1)C2 (stereo not given) | 2.6 µM
51 | CN1CCN(Cc2cc(COCc3ccccc3)c3cccnc3c2O)CC1 | 10.5 µM (inactive)
52 | CN1c2ccccc2C(C)(C)C12C=Cc1cc(O)ccc1O2 (stereo not given) | 10.4 µM (inactive)
53 | c1ccc2c(c1)[nH]c1c(N3CCCC3)ncnc12 | 13.3 µM (inactive)
54 | CCOc1ccccc1C(=O)N1CCN(c2cccc(Cl)c2)CC1 | 0.095 µM
55 | COC(=O)c1sc(N)c(C(=O)OC)c1COC(=O)c1c(C)noc1C | 2.35 µM
